Laboratory results: patent publication US20250368624A1, “M24B AMINOPEPTIDASE INHIBITORS FOR CARD8 INFLAMMASOME ACTIVATION” (Memorial Sloan-Kettering Cancer Center, priority 2022, published 2025)

Key:
MV4;11 WT cells = experiment: CellTiter-Glo cell viability, WT MV4;11 cells; assay type: cell-based; conditions: for cytotoxicity to MV4;11 cells (in words) / IC50: 24 h, CTG
Procedure: (§1) CellTiter-Glo cell viability and CytoTox-Fluor cell death assays. Cells were plated (2,000 cells per well) in white, 384-well clear-bottom plates (Corning) using an EL406 Microplate Washer/Dispenser (BioTek) in 25 μL final volume of medium. To the cell plates were added compounds at different concentrations using a pintool (CyBio) and the plates were allowed to incubate in the incubator. After incubation for indicated times, CytoTox-Fluor reagent (Promega, G9262) was added according to the manufacturer's protocol. The assay plates were then incubated for another 30 min before fluorescence was recorded using a Cytation 5 Cell Imaging Multi-Mode Reader (BioTek). Next, CellTiter-Glo reagent (Promega, G7573) was subsequently added to the assay plates following the manufacturer's protocol. Assay plates were shaken on an orbital shaker for 2 min and incubated at 25° C. for 10 min. Luminescence was then read using a Cytation 5 Cell Imaging Multi-Mode Reader (BioTek).

XPNPEP1 = XPNPEP1 (Homo sapiens (Human), UniProt Q9NQW7); experiment: XPNPEP1 substrate assay (H-Lys(abz)-Pro-Pro-pNA); assay type: biochemical; conditions: for IC50: XPNPEP1 3.5 nM, substrate 100 μM, 60 mins
Procedure: Protein purification. Human prolidase (PEPD) was generated and purified. XPNPEP1 in pET15-b containing a 6× His tag was expressed in E. coli Rosetta DE3 cells. Cells were induced with IPTG for 16 h at 37° C., pelleted and lysed in buffer A (20 mM Tris-HCl (pH 7.9), 500 mM NaCl, and 10% (v/v) glycerol) by sonication. Affinity purification chromatography was performed using TALON resin and according to previously published protocols (Li et al., 2008).
(§2) Substrate assays. For the PEPD assay, a solution of substrate (Ala-Pro) was prepared in DMSO. 24 μL of 50 nM recombinant human PEPD were added to a 384-well, black, clear-bottom plate (Corning) with 1 μL dipeptide Ala-Pro (final conc. 40 μM). Alanine liberated was measured as increasing fluorescence signal (Resorufin, Ex/Em: 535/587 nm) recorded at 25° C. using an L-alanine assay kit (Abcam, ab83394) at 25° C. according to manufacturer's instructions. For the AMC reporter assays, experiments were performed with cell lysates. 5 μL solution of substrate (2.5 mM Ala-AMC) was added the mixture of 10 μL HEK293T cell lysates (2.5 mg/ml) and 10 μL of indicated compounds in a 384-well, black, clear-bottom plate (Corning) to initiate the reaction. Substrate cleavage was measured as increasing fluorescence signal (Ex/Em: 380/460 nm) recorded at 25° C. for 20 mins. For XPNPEP1 enzymes (XPNPEP1 3.5 nM) were plated on a black 384-well clear bottom plate and treated with the indicated doses of compounds. H-Lys(abz)-Pro-Pro-pNA substrate was added to a final concentration of 100 μM, and fluorescence was monitored (Ex/Em: 320/410) for 60 mins.

recombinant human PEPD = recombinant human PEPD (Homo sapiens (Human), UniProt P12955); experiment: PEPD substrate assay (Ala-Pro cleavage, L-alanine assay kit); assay type: biochemical; conditions: for IC50: 50 nM recombinant human PEPD, Ala-Pro 40 μM, 25° C.
Procedure: Protein purification. Human prolidase (PEPD) was generated and purified. XPNPEP1 in pET15-b containing a 6× His tag was expressed in E. coli Rosetta DE3 cells.
as §2, with “Alanine liberated was measured as increasing fluorescence signal (Resorufin, Ex/Em: 535/587 nm) recorded at 25° C. using an L-alanine assay kit (Abcam, ab83394) at 25° C. according to manufacturer's instructions.” left out, “For XPNPEP1 enzymes (XPNPEP1 3.5 nM) were plated on a black 384-well clear bottom plate and treated with the indicated doses of compounds.” left out

MV4;11 CASP1-/- cells = experiment: CellTiter-Glo cell viability, CASP1-/- MV4;11 cells; assay type: cell-based; conditions: 24 h, CTG; for CASP1-independent cell death: WT and CASP1-/- MV4;11 cells
Procedure: Cloning. CASP1^−/− MV4;11 cells^12; CARD8^−/− MV4;11, THP-1, OCI-AML2 cells^14; DPP8/9^−/− THP-1^12; PEPD^−/−, XPNPEP1^−/−, PEPD XPNPEP1^−/− THP-1 cells were generated. Plasmids for CARD8 variants, CASP1, GSDMD, dTAG-CARD8^ZUC were cloned as described previously (Hollingsworth et al., 2021; Johnson et al., 2018; Sharif et al., 2021).
as §1

[1] = Stability in cell culture supernatants; assay type: in vitro ADME

Sequence of XPNPEP1 (Q9NQW7 whole entry): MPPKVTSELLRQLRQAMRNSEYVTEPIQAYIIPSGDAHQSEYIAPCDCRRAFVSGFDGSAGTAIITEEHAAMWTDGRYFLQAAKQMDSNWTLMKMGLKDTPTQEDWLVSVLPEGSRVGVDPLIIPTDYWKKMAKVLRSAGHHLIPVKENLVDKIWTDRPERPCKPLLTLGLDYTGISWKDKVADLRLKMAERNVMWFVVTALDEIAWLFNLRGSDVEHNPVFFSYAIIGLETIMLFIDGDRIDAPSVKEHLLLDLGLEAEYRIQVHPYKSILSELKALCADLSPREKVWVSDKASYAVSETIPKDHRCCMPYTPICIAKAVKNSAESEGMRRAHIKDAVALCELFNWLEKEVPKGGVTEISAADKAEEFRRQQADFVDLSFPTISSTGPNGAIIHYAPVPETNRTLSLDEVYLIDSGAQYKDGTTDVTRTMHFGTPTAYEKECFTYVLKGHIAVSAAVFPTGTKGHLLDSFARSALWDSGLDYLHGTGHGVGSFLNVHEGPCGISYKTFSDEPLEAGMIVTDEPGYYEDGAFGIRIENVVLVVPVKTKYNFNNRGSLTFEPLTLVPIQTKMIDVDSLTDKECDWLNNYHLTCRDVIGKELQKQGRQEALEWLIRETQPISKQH
Sequence of recombinant human PEPD (P12955 whole entry): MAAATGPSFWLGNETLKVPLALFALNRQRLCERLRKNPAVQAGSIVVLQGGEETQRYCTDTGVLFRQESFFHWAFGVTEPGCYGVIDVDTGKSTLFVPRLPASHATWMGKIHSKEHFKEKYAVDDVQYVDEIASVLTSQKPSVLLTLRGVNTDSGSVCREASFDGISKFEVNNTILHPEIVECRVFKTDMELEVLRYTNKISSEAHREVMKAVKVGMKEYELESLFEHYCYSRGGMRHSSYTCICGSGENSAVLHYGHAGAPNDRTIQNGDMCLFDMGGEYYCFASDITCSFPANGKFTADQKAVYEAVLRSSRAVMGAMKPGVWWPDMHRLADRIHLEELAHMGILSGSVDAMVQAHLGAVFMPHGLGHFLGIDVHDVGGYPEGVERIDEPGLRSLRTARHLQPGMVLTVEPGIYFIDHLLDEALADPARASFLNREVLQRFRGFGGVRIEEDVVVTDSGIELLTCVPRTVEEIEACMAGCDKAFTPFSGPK

Row | SMILES | IC50 (XPNPEP1) | IC50 (recombinant human PEPD) | cytotoxicity to MV4;11 cells (in words) (MV4;11 WT cells) | other results
1 | COC(=O)[C@H](Cc1ccccc1)NC(=O)[C@@H](O)[C@H](N)CC(C)C [CQ72, Methyl ((2S,3R)-3-amino-2-hydroxy-5-methylhexanoyl)-L-phenylalaninate] | 96 µM | > 100 µM |  | XPNPEP1 inhibition (in words) (XPNPEP1): very weak PEPD and XPNPEP1 inhibitors; CASP1-independent cell death (MV4;11 CASP1-/- cells): triggered CASP1-independent cell death; PEPD inhibition (in words) (recombinant human PEPD): very weak PEPD and XPNPEP1 inhibitors
2 | CC(C)C[C@@H](N)[C@H](O)C(=O)N1CCC[C@H]1C(=O)OC1CCCC1 [CQ94, Cyclopentyl ((2S,3R)-3-amino-2-hydroxy-5-methylhexanoyl)-L-prolinate] |  |  | slightly more toxic | XPNPEP1 inhibition (in words) (XPNPEP1): inhibited PEPD and XPNPEP1 inhibitors similarly; PEPD inhibition (in words) (recombinant human PEPD): inhibited PEPD and XPNPEP1 inhibitors similarly
3 | CC[C@H](C)[C@H](NC(=O)[C@@H]1CCCN1C(=O)[C@@H](O)[C@H](N)CC(C)C)C(=O)OC [CQ81, Methyl ((2S,3R)-3-amino-2-hydroxy-5-methylhexanoyl)-L-prolyl-L-isoleucinate] | 23 µM | 0.84 µM |  | IC50 (MV4;11 WT cells; Homo sapiens, MV4-11): 0.6 µM; IC50 (MV4;11 CASP1-/- cells; Homo sapiens, MV4-11): > 20 µM
4 | C[C@H](NC(=O)[C@@H]1CCCN1C(=O)[C@@H]1CCCN1C(=O)[C@@H](O)[C@H](N)Cc1ccccc1)C(N)=O [Apstatin, apstatin, reference compound] | 18 µM |  | not cytotoxic at all | IC50 (MV4;11 WT cells): > 20 µM; IC50 (MV4;11 CASP1-/- cells): > 20 µM
5 | COC(=O)[C@H](Cc1ccccc1)NC(=O)[C@@H]1CCCN1C(=O)[C@@H](O)[C@H](N)CC(C)C [CQ79, Methyl ((2S,3R)-3-amino-2-hydroxy-5-methylhexanoyl)-L-prolyl-L-phenylalaninate] | 48 µM | 0.72 µM |  | IC50 (MV4;11 WT cells; Homo sapiens, MV4-11): 0.66 µM; IC50 (MV4;11 CASP1-/- cells; Homo sapiens, MV4-11): > 20 µM
6 | CC(C)C[C@H](NC(=O)[C@@H]1CCCN1C(=O)[C@@H](O)[C@H](N)CC(C)C)C(=O)NCCc1ccccc1 [CQ116, (S)-1-((2S,3R)-3-amino-2-hydroxy-5-methylhexanoyl)-N—((S)-4-methyl-1-oxo-1-(phenethylamino)pentan-2-yl)pyrrolidine-2-carboxamide] | 3.4 µM | 5.7 µM |  | stability in cell culture supernatants (in words) [1]: completely stable
7 | CC(C)C[C@@H](N)[C@H](O)C(=O)N1CCC[C@H]1c1nnn[nH]1 [CQ99, (2S,3R)-1-((S)-2-(1H-tetrazol-5-yl)pyrrolidin-1-yl)-3-amino-2-hydroxy-5-methylhexan-1-one] | 67 µM | 6.2 µM | inactive in cells | 
8 | COC(=O)[C@H](CC(C)C)NC(=O)[C@@H](O)[C@H](N)CC(C)C [CQ52, Methyl ((2S,3R)-3-amino-2-hydroxy-5-methylhexanoyl)-L-leucinate] | 57 µM | 51 µM |  | XPNPEP1 inhibition (in words) (XPNPEP1): very weak PEPD and XPNPEP1 inhibitors; CASP1-independent cell death (MV4;11 CASP1-/- cells): triggered CASP1-independent cell death; PEPD inhibition (in words) (recombinant human PEPD): very weak PEPD and XPNPEP1 inhibitors
9 | CC(C)C[C@@H](N)[C@H](O)C(=O)N1CCC[C@H]1C(=O)OC(C)(C)C [CQ34, tert-butyl ((2S,3R)-3-amino-2-hydroxy-5-methylhexanoyl)-L-prolinate] |  |  | slightly more toxic | stability in cell culture supernatants (in words) [1]: considerably more stable than CQ31 or CQ94; time after which completely hydrolyzed ([1]; cell culture supernatants): ≤ 8 h; XPNPEP1 inhibition (in words) (XPNPEP1): inhibited PEPD and XPNPEP1 inhibitors similarly; PEPD inhibition (in words) (recombinant human PEPD): inhibited PEPD and XPNPEP1 inhibitors similarly
10 | CC(C)C[C@@H](N)[C@H](O)C(=O)N1CCCC1 [CQ76, (2S,3R)-3-amino-2-hydroxy-5-methyl-1-(pyrrolidin-1-yl)hexan-1-one] | 38 µM | > 100 µM |  | overall activity (PEPD/XPNPEP1 inhibition and cytotoxicity, Table 6 and FIG. 2), in words (MV4;11 WT cells): abrogated all activity
11 | COC(=O)[C@H](C)NC(=O)[C@@H]1CCCN1C(=O)[C@@H]1CCCN1C(=O)[C@@H](O)[C@H](N)CC(C)C [CQ50, Methyl ((2S,3R)-3-amino-2-hydroxy-5-methylhexanoyl)-L-prolyl-L-prolyl-L-alaninate] | 8.1 µM | 11 µM |  | IC50 (MV4;11 WT cells; Homo sapiens, MV4-11): 35 µM; IC50 (MV4;11 CASP1-/- cells; Homo sapiens, MV4-11): > 100 µM
12 | COC(=O)[C@H](CC(C)C)NC(=O)[C@@H](O)[C@H](N)Cc1ccccc1 [MeBs, bestatin methyl ester, reference compound] |  |  |  | CASP1-independent cell death (MV4;11 CASP1-/- cells): CASP1-independent cell death

The next lines start with results.

Row | IC50 (XPNPEP1) | IC50 (recombinant human PEPD) | SMILES | cytotoxicity to MV4;11 cells (in words) (MV4;11 WT cells) | other results
13 | 66 µM | 4.2 µM | COC(=O)[C@@H]1CCCN1C(=O)[C@@H](O)[C@H](N)C1CC1 [CQ62, Methyl ((2S,3R)-3-amino-3-cyclopropyl-2-hydroxypropanoyl)-L-prolinate] | almost completely inactive | 
14 | 53 µM | 0.28 µM | CC(C)C[C@@H](N)[C@H](O)C(=O)N1CCC[C@H]1C(N)=O [CQ49, (S)-1-((2S,3R)-3-amino-2-hydroxy-5-methylhexanoyl)pyrrolidine-2-carboxamide] |  | overall activity (PEPD/XPNPEP1 inhibition and cytotoxicity, Table 6 and FIG. 2), in words (MV4;11 WT cells): retained similar PEPD/XPNPEP1 inhibition and cytotoxicity as CQ31
15 | 12 µM | > 100 µM | CC(C)C[C@@H](N)[C@H](O)C(=O)N1CCC[C@H]1CNS(C)(=O)=O [CQ53, N—(((S)-1-((2S,3R)-3-amino-2-hydroxy-5-methylhexanoyl)pyrrolidin-2-yl)methyl)methanesulfon-amide] | inactive in cells | 
16 | 303 µM | 1.6 µM | CONC(=O)[C@@H]1CCCN1C(=O)[C@@H](O)[C@H](N)CC(C)C [CQ55, (S)-1-((2S,3R)-3-amino-2-hydroxy-5-methylhexanoyl)-N-methoxypyrrolidine-2-carboxamide] | inactive in cells | 
17 | 115 µM | 0.3 µM | COC(=O)[C@@H]1CCCN1C(=O)[C@@H](O)[C@H](N)CCCCO [CQ75] | lost cytotoxicity | PEPD inhibition (in words) (recombinant human PEPD): retained PEPD inhibition
18 | 190 µM | > 100 µM | COC(=O)[C@@H]1C[C@H](O)CN1C(=O)[C@@H](O)[C@H](N)CC(C)C [CQ39, Methyl (2S,4S)-1-((2S,3R)-3-amino-2-hydroxy-5-methylhexanoyl)-4-hydroxypyrrolidine-2-carboxylate] |  | overall activity (PEPD/XPNPEP1 inhibition and cytotoxicity, Table 6 and FIG. 2), in words (MV4;11 WT cells): completely inactive
